Test results as given in patent US10485584B2, “Supplement for cultivation of mammalian embryos” (Lekarska fakulta v Plzni, Univerzita Karlova (Faculty of …, priority 2017, dated 2019).
Marks after values point to notes of the source that are not given here.

Columns and labels:
Type in all cases: cell-based
[1] = tested on: H3K9me2/3 and H3K9ac in pronuclear chromatin of porcine zygotes; assay: Zygote quality: methylation and acetylation of histone H3 on lysine K9 in pronuclear chromatin after IVF; details: related to untreated vehicle, DMSO = 1, preliminary data
Experimental: (§1) After 44 h of IVM, cumulus cells were removed with 0.1% hyaluronidase in TL-HEPES-PVA and the metaphase II (MII) oocytes with extruded first polar body were selected for IVF. The oocytes were washed three-times with modified Tris-buffered medium (mTBM; Abeydeera et al. Theriogenology 50:747-756, 1998) with 0.2% bovine serum albumin (BSA; A7888; Sigma) and placed into 100 μL drops of mTBM, covered with mineral oil in a 35 mm Petri dish. The dishes were allowed to equilibrate at 38.5° C. and 5% CO2 for 30 min before spermatozoa were added for fertilization. Spermatozoa were prepared as follows: 1 mL liquid semen preserved in BTS-based extender was washed twice in phosphate buffered saline (PBS) with 0.1% PVA (PBS-PVA) at 1500 rpm for 5 min. The last wash was supplemented with MitoTracker CMTRos (400 nM; M7510, Invitrogen) for 10 min at 39° C., used to tag sperm mitochondria that associate with the paternal pronucleus inside the fertilized oocytes. Labeled spermatozoa were resuspended in mTBM ([…]) and 1 μL of this sperm suspension was added to the medium containing the oocytes to give a final sperm concentration of 2.5 or 5×10^5 spermatozoa mL^−1. Oocytes were co-incubated with spermatozoa for 5 to 6 h at 38.5° C. and 5% CO2 in air. Thereafter, oocytes were washed and transferred into 100 μL PZM3 medium (Yoshioka et al. Biol Reprod 66:112-119, 2002) containing 0.4% BSA (A6003; Sigma) for further culture for 22 h. Simultaneously, presumed zygotes were cultured in 500 μL of PZM3 medium for 144 hrs to reach blastocyst stage. PZM3 was supplemented with the object of invention, i.e. N-benzyl-3,5-dicarbethoxy-4-phenyl-1,4-dihydropyridine, diluted in DMSO. Vehicle control contained DMSO only in equal concentration (0.1%). Tested concentrations of the compound are 1.5 and 3 μM, based on preliminary experiments evaluating the range 0.3-30 μM (see Table 1).

[2] = tested on: porcine oocytes and zygotes; assay: IVF results after 22 hr IVC (penetration rate, paternal pronucleus, monospermic fertilization)
Experimental: (§2) Porcine ovaries were obtained from 6- to 8-month-old non-cycling gilts (a crossbreed of Landrace x Large White) at the local slaughterhouse (Jatky Plzen a.s., Plzen, Czech Republic) and transported to laboratory at 39° C. Cumulus-oocyte complexes (COCs) were collected from ovarian follicles with a diameter of 2-5 mm by aspiration with a 20-gauge needle and handled in HEPES-buffered Tyrode lactate medium containing 0.01% (w/v) polyvinyl alcohol (TL-HEPES-PVA). Only fully grown oocytes with evenly dense cytoplasm, surrounded by compact cumuli, were selected for IVM and washed in maturation medium. The medium used for IVM was modified tissue culture medium (mTCM) 199 (Gibco, Life Technologies, UK) supplemented with 0.1% PVA, 3.05 mM D-glucose, 0.91 mM sodium pyruvate, […], 0.5 μg·mL^−1 LH (Sigma-Aldrich, USA), 0.5 μg·mL^−1 FSH (Sigma), 10 ng·mL^−1 epidermal growth factor (EGF; Sigma), 10% porcine follicular fluid, 75 μg·mL^−1 penicillin G and 50 μg·mL^−1 streptomycin. After 22 h of culture, the COCs were cultured in TCM199 without LH and FSH for an additional 22 h. The COCs were cultured in 500 μL of the medium covered by mineral oil in a four-well Petri dish (Nunc, Denmark), at 39° C. and 5% CO2 in air (Abeydeera et al. Theriogenology 50:747-756, 1998).
as §1
(§3) Within the imaging of 22 h zygotes, an assessment of penetration rate, creation of paternal pronucleus/pronuclei and monospermic fertilization was performed. Embryo cleavage was assessed by microscopy at 144 h of IVC. After 144 h of IVC, embryos were fixed in 2% formaldehyde for 40 min at room temperature (RT), washed three times with PBS, permeabilized with PBS-Triton X-100 for 30 min, and stained with 2.5 μg/mL DAPI (DNA staining; Molecular Probes, Eugene, Oreg., USA) for 40 min. Embryo cleavage, blastocyst formation, and cell number per blastocyst were assessed under an Eclipse Ci fluorescence microscope (Nikon Co., Tokyo, Japan).
(§4) Data are presented as the mean±S.E.M. of at least three independent experiments. […]

[3] = tested on: porcine embryos; assay: Embryonic development and blastocyst formation after 144 hr IVC
Experimental: as §2, §1, §3, §4

[4] = 3.0 μM, 22 hr IVC, calculated from penetrated oocytes

SMILES: CCOC(=O)C1=CN(Cc2ccccc2)C=C(C(=O)OCC)C1c1ccccc1 [N-benzyl-3,5-dicarbethoxy-4-phenyl-1,4-dihydropyridine]
- H3K9ac ([1]; 0.3 μM): 0.61
- H3K9me2/3 ([1]; 0.3 μM): 2.72
- H3K9ac ([1]; 3.0 μM): 0.63
- H3K9me2/3 ([1]; 3.0 μM): 1.64
- H3K9ac ([1]; 30 μM): 1.36
- H3K9me2/3 ([1]; 30 μM): 0.76
- penetrated oocytes (mean % ± SEM) ([2]; 3.0 μM, 22 hr IVC): 42.8%
- No. of monospermic fertilization [2, 4]: 39
- No. of oocyte with PPN [2, 4]: 76
- monospermic fertilization (mean % ± SEM) [2, 4]: 42.4 ± 10.4%
- oocyte with PPN (mean % ± SEM) [2, 4]: 82.6 ± 6.7%
- No. of penetrated oocytes ([2]; 3.0 μM, 22 hr IVC, of 215 oocytes): 92
- polyspermic fertilization ([2]; in the presence of compound, versus DMSO vehicle): higher polyspermic fertilization
- Mean cell No. per blastocyst (mean ± SEM) ([3]; 1.5 μM): 32.7 ± 2.5^a
- No. of blastocysts ([3]; 1.5 μM): 10
- No. of cleaved oocytes ([3]; 1.5 μM): 47
- blastocysts (mean % ± SEM) ([3]; 1.5 μM): 14.5 ± 7.2%
- cleaved oocytes (mean % ± SEM) ([3]; 1.5 μM): 70.2 ± 7.3%
- Mean cell No. per blastocyst (mean ± SEM) ([3]; 3 μM): 38.4 ± 4.2^a
- No. of blastocysts ([3]; 3 μM): 18
- No. of cleaved oocytes ([3]; 3 μM): 44
- blastocysts (mean % ± SEM) ([3]; 3 μM): 32.9 ± 8.1%
- cleaved oocytes (mean % ± SEM) ([3]; 3 μM): 62.7 ± 7.1%
- efficiency compared with naturally occurring polyphenols (resveratrol) ([3]; comparison with resveratrol): even more efficient than naturally occurring polyphenols

SMILES: Oc1ccc(C=Cc2cc(O)cc(O)c2)cc1 [Resveratrol, reference compound]
- Mean cell No. per blastocyst (mean ± SEM) ([3]; 3 μM): 39.3 ± 11.3^a
- No. of blastocysts ([3]; 3 μM): 4
- No. of cleaved oocytes ([3]; 3 μM): 47
- blastocysts (mean % ± SEM) ([3]; 3 μM): 6.2 ± 2.8%
- cleaved oocytes (mean % ± SEM) ([3]; 3 μM): 67.7 ± 10.6%
